Source: patent US8541427B2, “Phenyl-substituted 2-imino-3-methyl pyrrolo pyrimidinone compounds as BACE-1 inhibitors, compositions, and their use” (Merck, Sharp & Dohme, Corp., priority 2008, dated 2013)
Read-outs that look alike come from different tables or passages of the source.

Legend:
[1] = molecular target: human liver Cathepsin D (Homo sapiens (Human), UniProt P07339); assay: Human Cathepsin D FRET Assay; assay type: biochemical; conditions: selectivity with respect to Cathepsin D vs BACE1
human liver Cathepsin D, sequence (P07339 65-412): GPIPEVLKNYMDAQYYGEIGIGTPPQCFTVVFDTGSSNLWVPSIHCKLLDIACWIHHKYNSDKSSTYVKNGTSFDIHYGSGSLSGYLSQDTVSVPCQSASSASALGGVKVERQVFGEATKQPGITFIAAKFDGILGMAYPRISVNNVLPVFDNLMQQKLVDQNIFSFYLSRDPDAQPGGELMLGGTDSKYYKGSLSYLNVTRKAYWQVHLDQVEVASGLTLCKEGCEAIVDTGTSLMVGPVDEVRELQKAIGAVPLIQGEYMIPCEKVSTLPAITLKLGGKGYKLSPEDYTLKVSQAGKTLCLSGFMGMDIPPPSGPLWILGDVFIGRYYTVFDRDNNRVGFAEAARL
human liver Cathepsin D, sequence (P07339 169-412): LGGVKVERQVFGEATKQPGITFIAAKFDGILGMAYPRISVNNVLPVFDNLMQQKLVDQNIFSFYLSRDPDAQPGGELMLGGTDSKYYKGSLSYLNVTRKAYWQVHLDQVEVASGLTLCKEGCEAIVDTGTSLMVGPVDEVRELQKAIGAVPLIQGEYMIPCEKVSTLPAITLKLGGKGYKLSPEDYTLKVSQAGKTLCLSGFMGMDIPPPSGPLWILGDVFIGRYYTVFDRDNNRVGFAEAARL

[2] = molecular target: CYP2D6 (Homo sapiens (Human), UniProt P10635); assay: CYP Inhibition Assay, CYP2D6; assay type: in vitro ADME; conditions: human liver microsomes
CYP2D6, sequence (P10635 whole entry, the tested form may be a part): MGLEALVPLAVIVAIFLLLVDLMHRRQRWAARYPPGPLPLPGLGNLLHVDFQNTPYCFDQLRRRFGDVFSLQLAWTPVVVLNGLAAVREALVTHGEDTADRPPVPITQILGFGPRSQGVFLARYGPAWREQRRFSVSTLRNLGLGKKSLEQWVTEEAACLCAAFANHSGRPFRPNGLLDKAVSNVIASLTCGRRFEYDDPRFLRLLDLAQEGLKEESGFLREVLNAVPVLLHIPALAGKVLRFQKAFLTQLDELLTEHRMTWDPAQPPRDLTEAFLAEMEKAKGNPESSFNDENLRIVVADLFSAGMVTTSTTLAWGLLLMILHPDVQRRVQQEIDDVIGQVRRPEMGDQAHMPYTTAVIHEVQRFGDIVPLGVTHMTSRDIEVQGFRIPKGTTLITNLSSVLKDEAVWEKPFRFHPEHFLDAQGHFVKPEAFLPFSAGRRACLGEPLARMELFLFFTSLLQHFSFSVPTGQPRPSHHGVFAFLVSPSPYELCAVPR

[3] = molecular target: soluble human BACE1 catalytic domain (Homo sapiens (Human), UniProt P56817); assay: BACE1 HTRF FRET Assay; assay type: biochemical; conditions: Ki calculated from IC50 with Cheng-Prusoff equation;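 also: cleavage of a quenched APP Swedish mutant peptide (QSY7 quencher, Europium donor) measured as rise in 620 nm fluorescence after 1.5 h at 30 °C, inhibition suppresses signal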
soluble human BACE1 catalytic domain, sequence (P56817 75-416): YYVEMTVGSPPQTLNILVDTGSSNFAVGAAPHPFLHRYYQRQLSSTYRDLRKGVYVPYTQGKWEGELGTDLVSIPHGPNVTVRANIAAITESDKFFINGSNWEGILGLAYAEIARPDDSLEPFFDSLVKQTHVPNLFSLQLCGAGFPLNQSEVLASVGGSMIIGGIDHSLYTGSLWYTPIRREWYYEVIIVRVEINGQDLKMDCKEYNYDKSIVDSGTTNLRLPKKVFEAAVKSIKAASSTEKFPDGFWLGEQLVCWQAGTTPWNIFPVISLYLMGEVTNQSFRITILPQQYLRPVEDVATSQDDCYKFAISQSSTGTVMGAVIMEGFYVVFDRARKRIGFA

[4] = molecular target: BACE1 (Aβ40 in HEK293-APPswe/lon cells) (Homo sapiens (Human), UniProt P56817); assay: BACE Inhibitor Whole Cell IC50 Determination Using HEK293-APPswe/lon Cells (Aβ40); assay type: cell-based; conditions: 4 hours
BACE1 (Aβ40 in HEK293-APPswe/lon cells), sequence (P56817 46-501): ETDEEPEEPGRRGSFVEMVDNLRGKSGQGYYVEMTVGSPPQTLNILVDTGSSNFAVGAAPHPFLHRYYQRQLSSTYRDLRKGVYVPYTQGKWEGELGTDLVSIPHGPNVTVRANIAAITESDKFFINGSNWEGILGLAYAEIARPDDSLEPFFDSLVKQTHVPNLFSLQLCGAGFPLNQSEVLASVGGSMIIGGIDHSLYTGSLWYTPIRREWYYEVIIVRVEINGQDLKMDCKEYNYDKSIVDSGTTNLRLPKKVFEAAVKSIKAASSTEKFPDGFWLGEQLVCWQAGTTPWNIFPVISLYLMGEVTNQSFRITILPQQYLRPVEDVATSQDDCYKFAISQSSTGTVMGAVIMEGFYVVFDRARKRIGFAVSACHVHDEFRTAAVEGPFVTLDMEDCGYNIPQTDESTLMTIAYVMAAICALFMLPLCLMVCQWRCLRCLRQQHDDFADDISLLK

[5] = molecular target: hERG (Homo sapiens (Human), UniProt Q12809); assay: hERG screening, IonWorks Quattro (hERG L929 cells); assay type: cell-based; conditions: L929 cells expressing hERG; for inhibition at 5 min, 1 uM: read-out: HERG Ionworks % Inhib 1 uM; for inhibition at 5 min, 10 uM: read-out: HERG Ionworks % Inhib 10 uM
hERG, sequence (Q12809 whole entry): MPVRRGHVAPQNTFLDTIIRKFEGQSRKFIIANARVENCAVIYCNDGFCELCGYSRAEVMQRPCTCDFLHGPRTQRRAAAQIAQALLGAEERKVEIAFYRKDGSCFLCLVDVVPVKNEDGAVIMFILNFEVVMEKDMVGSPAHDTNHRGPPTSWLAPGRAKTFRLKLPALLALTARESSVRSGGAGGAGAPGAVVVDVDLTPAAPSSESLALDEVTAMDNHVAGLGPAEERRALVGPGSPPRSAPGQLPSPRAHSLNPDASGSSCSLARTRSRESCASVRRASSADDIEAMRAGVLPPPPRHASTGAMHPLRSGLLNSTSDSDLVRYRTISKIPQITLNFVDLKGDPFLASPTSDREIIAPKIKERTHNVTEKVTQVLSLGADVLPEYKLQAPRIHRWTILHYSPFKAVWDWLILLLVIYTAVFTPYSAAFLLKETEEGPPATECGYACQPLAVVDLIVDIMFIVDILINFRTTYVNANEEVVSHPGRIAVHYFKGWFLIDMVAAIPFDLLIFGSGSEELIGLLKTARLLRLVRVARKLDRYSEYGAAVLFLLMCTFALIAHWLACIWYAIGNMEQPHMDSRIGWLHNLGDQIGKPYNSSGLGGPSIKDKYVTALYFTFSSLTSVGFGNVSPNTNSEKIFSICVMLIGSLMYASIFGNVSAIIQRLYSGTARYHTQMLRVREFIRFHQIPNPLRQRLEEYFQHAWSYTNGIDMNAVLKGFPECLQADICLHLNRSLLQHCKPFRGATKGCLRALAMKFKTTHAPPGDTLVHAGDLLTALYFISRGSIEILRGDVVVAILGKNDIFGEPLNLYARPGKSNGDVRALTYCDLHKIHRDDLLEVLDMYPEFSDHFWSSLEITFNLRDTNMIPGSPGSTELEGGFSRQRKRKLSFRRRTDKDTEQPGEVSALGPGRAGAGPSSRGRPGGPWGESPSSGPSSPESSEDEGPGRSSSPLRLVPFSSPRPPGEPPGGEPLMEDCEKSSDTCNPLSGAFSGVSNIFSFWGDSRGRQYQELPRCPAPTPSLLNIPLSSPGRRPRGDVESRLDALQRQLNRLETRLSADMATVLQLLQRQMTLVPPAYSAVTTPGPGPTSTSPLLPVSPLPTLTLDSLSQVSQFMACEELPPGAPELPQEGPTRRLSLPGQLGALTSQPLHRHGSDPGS

[6] = molecular target: CYP2C9 (Homo sapiens (Human), UniProt P11712); assay: CYP Inhibition Assay, CYP2C9; assay type: in vitro ADME; conditions: human liver microsomes;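 also: probe substrate held close to its Km, with metabolite formation quantified by LC-MS/MS against a calibration curve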
CYP2C9, sequence (P11712 whole entry): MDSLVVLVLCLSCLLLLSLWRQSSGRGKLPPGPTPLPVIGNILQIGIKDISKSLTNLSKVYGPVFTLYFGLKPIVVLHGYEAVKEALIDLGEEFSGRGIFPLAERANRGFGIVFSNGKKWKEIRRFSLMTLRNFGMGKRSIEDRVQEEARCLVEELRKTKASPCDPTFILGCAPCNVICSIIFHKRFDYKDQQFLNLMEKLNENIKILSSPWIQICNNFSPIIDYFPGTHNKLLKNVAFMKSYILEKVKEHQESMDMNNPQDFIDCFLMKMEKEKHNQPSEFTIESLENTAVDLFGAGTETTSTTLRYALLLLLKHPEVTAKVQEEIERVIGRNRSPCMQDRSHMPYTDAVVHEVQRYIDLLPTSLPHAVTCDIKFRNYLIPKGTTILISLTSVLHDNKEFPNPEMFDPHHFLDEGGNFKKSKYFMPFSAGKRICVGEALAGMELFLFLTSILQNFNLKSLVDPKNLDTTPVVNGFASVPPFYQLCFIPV

[7] = molecular target: CYP3A4 (Homo sapiens (Human), UniProt P08684); assay: CYP Inhibition Assay, CYP3A4; assay type: in vitro ADME; conditions: human liver microsomes;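 also: CYP probe substrate held near its Km, inhibition judged from metabolite formation quantified by LC-MS/MS against a standard curve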
CYP3A4, sequence (P08684 whole entry): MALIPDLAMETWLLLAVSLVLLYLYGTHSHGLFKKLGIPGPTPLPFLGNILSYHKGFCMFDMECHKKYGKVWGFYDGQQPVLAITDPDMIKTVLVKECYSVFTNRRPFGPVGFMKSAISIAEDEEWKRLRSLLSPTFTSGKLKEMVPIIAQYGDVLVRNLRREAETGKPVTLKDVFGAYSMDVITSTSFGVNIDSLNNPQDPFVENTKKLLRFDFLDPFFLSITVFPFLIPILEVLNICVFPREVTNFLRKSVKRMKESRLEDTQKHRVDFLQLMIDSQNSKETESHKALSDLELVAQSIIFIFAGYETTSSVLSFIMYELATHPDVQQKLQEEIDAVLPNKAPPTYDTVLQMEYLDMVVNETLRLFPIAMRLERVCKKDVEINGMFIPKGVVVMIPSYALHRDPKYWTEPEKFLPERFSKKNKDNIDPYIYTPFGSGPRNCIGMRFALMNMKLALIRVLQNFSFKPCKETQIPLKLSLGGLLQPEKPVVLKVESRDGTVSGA

[8] = 30 min pre-incubation with NADPH, read-out: CYP 2D6 IC50 pre
[9] = co-incubation, read-out: CYP 2D6 IC50 co
[10] = 30 min pre-incubation with NADPH, read-out: CYP 2C9 IC50 pre
[11] = co-incubation, read-out: CYP 2C9 IC50 co
[12] = 30 min pre-incubation with NADPH, read-out: CYP 3A4 IC50 pre
[13] = co-incubation, read-out: CYP 3A4 IC50 co

Row | SMILES | CathD Selectivity [1] | IC50 [2, 8] [µM] | IC50 [2, 9] [µM] | Ki [3] [µM] | IC50 [4] [µM] | inhibition at 5 min, 1 uM [5] [%] | inhibition at 5 min, 10 uM [5] [%] | IC50 [6, 10] [µM] | IC50 [6, 11] [µM] | IC50 [7, 12] [µM] | IC50 [7, 13] [µM]
1 | CCc1nc(N2C[C@H]3C(=O)N(C)C(=N)N[C@@]3(c3ccc(F)cc3F)C2)nc(OC)c1F [Example 32] | 310 | > 20 | > 20 | 0.0053 | 0.026 | 19 | 95 | > 20 | > 20 | > 20 | > 20
2 | COc1nc(N2C[C@H]3C(=O)N(C)C(=N)N[C@@]3(c3cc(Cl)ccc3F)C2)nc(C)c1F [Example 3] |  | > 20 | > 20 |  |  | 22 | 89 | 12.7 | 8.5 | > 20 | > 20
3 | Cc1nc(N2C[C@H]3C(=O)N(C)C(=N)N[C@@]3(c3cc(F)ccc3F)C2)nc(C2CC2)c1F [Example 37] |  | > 20 | > 20 | 0.026 | 0.235 | 12 | 73 | > 20 | > 20 | > 20 | > 20
4 | COc1nc(N2C[C@H]3C(=O)N(C)C(=N)N[C@@]3(c3cc(F)ccc3F)C2)nc(OC)c1F [Example 9] | 386 | > 30 | > 30 | 0.0056 | 0.066 | 12 | 71 | ~30 | ~30 | 18.6 | > 30
5 | COc1nc(N2C[C@H]3C(=O)N(C)C(=N)N[C@@]3(c3ccc(F)cc3F)C2)nc(C(F)(F)F)c1F [Example 41] | 346 |  |  | 0.032 | 0.067 | 1 | 77 |  |  |  | 
6 | COc1nc(N2C[C@H]3C(=O)N(C)C(=N)N[C@@]3(c3ccc(F)cc3Cl)C2)nc(C)c1F [Example 20] | 106 | > 20 | > 20 | 0.0045 | 0.0095 | 29 | 93 | 8.9 | 7.5 | 8.3 | > 20
7 | COc1nc(N2C[C@H]3C(=O)N(C)C(=N)N[C@@]3(c3ccc(F)c(Cl)c3F)C2)nc(C)c1F (racemic) [39 racemic] | 221 | > 20 | > 20 | 0.0092 | 0.04 | 3 | 61 | > 20 | > 20 | > 20 | > 20
8 | COc1nc(N2C[C@H]3C(=O)N(C)C(=N)N[C@@]3(c3cccc(Cl)c3)C2)nc(C)c1F [Example 33] | 43 |  |  | 0.039 | 0.176 |  |  |  |  |  | 
9 | Cc1nc(N2C[C@H]3C(=O)N(C)C(=N)N[C@@]3(c3cccc(C#N)c3)C2)nc(C2CC2)c1F [Example 14] |  | > 20 | > 20 | 0.043 | 0.213 | 6 | 59 | > 20 | > 20 | > 20 | > 20
10 | COc1nc(N2C[C@H]3C(=O)N(C)C(N)=N[C@@]3(c3c(F)ccc(F)c3F)C2)nc(C)c1F [Example 40] |  | > 20 | > 20 |  |  | 15 | 81 | > 20 | > 20 | > 20 | > 20
11 | COc1nc(N2C[C@H]3C(=O)N(C)C(=N)N[C@@]3(c3ccccc3F)C2)nc(C)c1Cl [Example 18] | 228 |  |  | 0.0093 | 0.032 |  |  |  |  |  | 
12 | CCc1nc(N2C[C@H]3C(=O)N(C)C(N)=N[C@@]3(c3ccccc3)C2)nc(C2CC2)c1Cl (racemic) [26 racemic] |  | > 20 | > 20 | 0.18 |  |  |  | > 20 | > 20 | > 20 | > 20
13 | CCc1nc(N2C[C@H]3C(=O)N(C)C(N)=N[C@@]3(c3ccccc3)C2)nc(C)c1F (racemic) [5 racemic] |  | > 30 | ~30 | 0.061 | 0.217 |  |  | > 30 | > 30 | > 30 | > 30
14 | COc1nc(N2C[C@H]3C(=O)N(C)C(=N)N[C@@]3(c3ccc(F)cc3F)C2)nc(C(C)(F)F)c1F [Example 42] |  |  |  | 0.011 |  |  |  |  |  |  | 
15 | Cc1nc(N2C[C@H]3C(=O)N(C)C(N)=N[C@@]3(c3ccccc3)C2)nc(C2CC2)c1F (racemic) [25 racemic] |  | > 20 | > 20 | 0.044 | 0.349 |  |  | > 20 | > 20 | > 20 | > 20
16 | COc1nc(N2C[C@H]3C(=O)N(C)C(=N)N[C@@]3(c3cc(F)ccc3Cl)C2)nc(C)c1F [Example 2] | 162 | > 20 | > 20 |  |  | 8 | 50 | > 20 | > 20 | > 20 | > 20
17 | Cc1nc(N2C[C@H]3C(=O)N(C)C(N)=N[C@@]3(c3ccccc3)C2)nc(C)c1F (racemic) [23 racemic] |  | > 30 | > 30 | 0.154 | 0.292 |  |  | > 30 | > 30 | > 30 | > 30
18 | CCOc1nc(N2C[C@H]3C(=O)N(C)C(N)=N[C@@]3(c3ccccc3)C2)nc(C)c1F (racemic) [4 racemic] |  | > 30 | ~30 |  |  |  |  | > 30 | > 30 | > 30 | > 30
19 | CCc1nc(N2C[C@H]3C(=O)N(C)C(=N)N[C@@]3(c3ccccc3)C2)nc(OC)c1F (racemic) [6 racemic] | 318 | ~30 | 24.9 | 0.016 | 0.144 |  |  | > 30 | > 30 | > 30 | > 30
20 | CCOc1nc(N2C[C@H]3C(=O)N(C)C(=N)N[C@@]3(c3ccccc3)C2)nc(OC)c1F (racemic) [24 racemic] | 129 | ~30 | 22.6 | 0.137 |  |  |  | > 30 | > 30 | > 30 | > 30
21 | Cc1nc(N2C[C@H]3C(=O)N(C)C(N)=N[C@@]3(c3ccccc3)C2)nc(C2CC2)c1Cl (racemic) [7 racemic] |  |  |  | 0.094 | 0.664 |  |  |  |  |  | 
22 | COc1nc(N2C[C@H]3C(=O)N(C)C(=N)N[C@@]3(c3c(F)cc(F)cc3F)C2)nc(C)c1F [Example 13] | 773 | > 20 | > 20 | 0.015 | 0.021 |  |  | > 20 | > 20 | > 20 | > 20
23 | COc1nc(N2C[C@H]3C(=O)N(C)C(N)=N[C@@]3(c3cc(F)c(F)cc3F)C2)nc(C)c1F [Example 8] |  | > 20 | > 20 |  |  | 21 | 89 | > 20 | > 20 | > 20 | > 20
